Measurements taken from patent publication US7999011B2, “Method for cardioprotection and neuroprotection by intravenous administration of halogenated volatile anesthetics” (Baxter International Inc., priority 2002, dated 2011).
“Also recorded” adds a separate entry of the source.

What was measured:
[1] = tested on: myocardial ischemia-reperfusion injury; assay: Myocardial infarct size following ischemia and reperfusion (30 min LAD occlusion, 3 h reperfusion); type: in vivo, rabbit; conditions: for infarct size plotted as a function of area at risk, versus control regression line: FIGS. 4A, 4B, 5A, 5B; for cardioprotection (protection against myocardial ischemia-reperfusion injury): i.v. emulsion prior to coronary artery occlusion; for IF/AAR: infarct size as percentage of area at risk, i.v. emulsion 10 ml/h 30 min, stopped 30 min before occlusion; for IF WT: infarct weight
Procedure: These experiments were designed to characterize the effects of different HVAs (enflurane, isoflurane, sevoflurane, and desflurane) administered intravenously in an emulsion on myocardial infarct size following ischemia and reperfusion in rabbits.
Male New Zealand white rabbits weighing between 2.5 and 3.0 kg were anesthetized with intravenous sodium pentobarbital (30 mg/kg). Additional doses of pentobarbital were titrated as required to assure that pedal and palpebral reflexes were absent throughout the experiment. A tracheotomy was performed through a ventral midline incision, and the trachea was cannulated. The rabbits were ventilated with positive pressure using an air-oxygen mixture (FiO2=0.33). Arterial blood gas tensions and acid-base status were maintained within a normal physiological range (pH 7.35-7.45, PaCO2 25-40 mmHg, and PaO2 90-150 mmHg) by adjusting the respiratory rate or tidal volume. Body temperature was maintained with a heating blanket. Heparin-filled catheters were inserted into the right carotid artery and the left jugular vein for measurement of arterial blood pressure and fluid or drug administration, respectively. Maintenance fluids consisted of 0.9% saline (15 ml/kg/h) that were continued for the duration of the experiment.
A left thoracotomy was performed at the fourth intercostal space, and the heart was suspended in a pericardial cradle. A prominent branch of the left anterior descending coronary artery (LAD) was selected, and a silk ligature was placed around this artery approximately halfway between the base and apex for the production of coronary artery occlusion and reperfusion in myocardial infarct size experiments. Each rabbit was anticoagulated with 500 U of heparin immediately before LAD occlusion. Coronary artery occlusion was verified by the presence of epicardial cyanosis and regional dyskinesia in the ischemic zone, and reperfusion was confirmed by observing an epicardial hyperemic response. Hemodynamics were continuously recorded on a polygraph throughout experimentation. After the surgical preparation, 30 min of stabilization were allowed.
The experimental design for the experiments is illustrated in FIG. 1. Rabbits were randomly assigned to one of six experimental groups: a control group (0.9% saline infusion), a vehicle group (drug lipid vehicle), or one of four anesthetic groups (emulsified desflurane, isoflurane, enflurane, or sevoflurane). The vials of anesthetics were stored at 4° C. as prepared in Example 1. After opening, the vial was left in a water bath at 37° C. for 2 h. Anesthetics were directly poured into the syringe without using negative pressure suction.
(§1) Baseline measurements of systemic hemodynamics, arterial blood gas tensions, and blood concentrations of anesthetic agent were performed 30 min after instrumentation was completed. Rabbits received 0.9% saline, drug lipid vehicle (10 ml/h), or intravenous volatile anesthetic (10 ml/h) for 30 min. Infusions were discontinued 30 min prior to coronary occlusion (memory period). Blood concentrations of anesthetic agents were performed at baseline, at the end of anesthetic infusion, and at the end of the memory period just before coronary occlusion). HVA concentrations in blood were determined by gas chromatographic (GC) analysis. All rabbits underwent a 30 min LAD occlusion followed by 3 h reperfusion.
At the end of each experiment, the LAD was reoccluded and 3 ml of Patent blue dye was injected intravenously. The left ventricular area at risk for infarction was separated from surrounding normal areas (stained blue), and the two regions were incubated at 37° C. for 20 to 30 min in 1% 2,3,5-triphenyltetrazolium chloride in 0.1 M phosphate buffer adjusted to pH 7.4. After overnight storage in 10% formaldehyde, infarcted and noninfarcted myocardium within the area at risk were carefully separated and weighed. Infarct size was expressed as a percentage of the area at risk. […]

[2] = Blood concentration of anesthetics by GC and conversion to MAC-equivalents; type: in vivo, rabbit
Procedure: as §1
Blood concentrations as measured by GC were converted to their MAC-equivalent values by calculations described below. Initially “n”, or the number of moles of HVA in 1 L of alveolar gas during exposure to 1.0 MAC of the HVA was calculated. The ideal gas law n=PV/RT is used to calculate the number of moles of HVA present at 1 MAC in the alveolar gas where: V=1 L, T=273+37=310° (K); and R=0.0821 (universal gas constant). P or pressure was determined taking into account the vapor pressure of water at 37° C. which is 47.1 torr, and the volume percent of the HVA. Volume percentages of HVAs (MAC values) were obtained from literature values determined in rabbits (Scheller et al. Can. J. Anaesth. 1988, 35: 133-136; Drummond, J C Anesthesiology 1985; 62: 336-8, and Doorley et al. Anesthesiology 1988; 69, 89-91), and are presented in Table 8.
The number of moles of the HVA in 1 L at 37° C. at 1 MAC in rabbits was then used to determine the concentration of the HVA present in blood by using known blood/gas partition values (also known as λ). Blood gas partition values for the HVAs used in the study are show in Table 8. The value for “x” (or the equivalent blood concentration of the HVA at 1 MAC at 37° C. in rabbit) is then determined by the equation: x=λn
To express a measured blood concentration of an HVA as a MAC-equivalent value, the measured blood concentration is divided by x. The MAC equivalent values shown in Table 8 were calculated according to the above from the blood concentrations observed (see Table 7).

[3] = blood/gas; cited from earlier work
End-tidal gas analysis = type: in vivo, rabbit; conditions: for EtHalogenated: end-tidal
Procedure: as §1
Statistical analysis of data within and between groups was performed with analysis of variance (ANOVA) for repeated measures followed by Student-Newman-Keuls test. Changes between groups were considered statistically significant when the p value was less than 0.05. All data are expressed as mean±SEM.

[4] = Infusion (end of 30 min, 10 ml/h i.v. infusion)
[5] = Memory (30 min after infusion, just before coronary occlusion)
[6] = measured blood concentration divided by x

For FC(F)OC(F)(F)C(F)Cl (stereo not shown) [ENF, enflurane], the “infarct size plotted as a function of area at risk, versus control regression line” value [1] was “infarcts were smaller than in the control group”, the “cardioprotection (protection against myocardial ischemia-reperfusion injury)” value (from here on “cardioprotection”) ([1]; listed as Enflurane) was “provided protection against myocardial ischemia-reperfusion injury” and the “cardioprotection” value ([1]; listed as enflurane) was “adequate protection against myocardial ischemia-reperfusion injury; also recorded: significant reduction in the myocardial infarct size”. For the same molecule, the IF/AAR [1] was 20.0 ± 2.8 %, the “IF WT” value [1] was 0.21 ± 0.02 g and the “Blood Concentration” value ([2]; Baseline) was 0 µM. For the same molecule, the “Blood Concentration” value [2, 4] was 310 ± 30 µM, the “Blood Concentration” value [2, 5] was 60 ± 10 µM and the “Observed Blood Concentration following 30 min, 10 mL/h Infusion” value ([2]; i.v. emulsion) was 0.31 mM. For the same molecule, the “Observed Blood Concentration following 30 min, 10 mL/h Infusion” value [2, 6] was 0.15 MAC-Equivalents, the “Partition Coefficient ("λ")” value [3] was 1.9 and the EtCO2 (End-tidal gas analysis; Baseline) was 36 ± 2 mmHg. The EtCO2 (End-tidal gas analysis; Infusion) was 37 ± 2 mmHg, the EtCO2 (End-tidal gas analysis; Ischemia 30 min) was 33 ± 3 mmHg and the EtCO2 (End-tidal gas analysis; Memory) was 34 ± 2 mmHg. For the same molecule, the EtCO2 (End-tidal gas analysis; Reperfusion 1 h) was 33 ± 3 mmHg, the EtCO2 (End-tidal gas analysis; Reperfusion 2 h) was 33 ± 3 mmHg and the EtCO2 (End-tidal gas analysis; Reperfusion 3 h) was 35 ± 3 mmHg. The EtHalogenated (End-tidal gas analysis; Baseline) was 0%, the EtHalogenated (End-tidal gas analysis; Infusion) was 0.27 ± 0.02% and the EtHalogenated (End-tidal gas analysis; Ischemia 30 min) was 0.00 ± 0.00%. It also gave an EtHalogenated (End-tidal gas analysis; Memory) of 0.02 ± 0.01%, an EtHalogenated (End-tidal gas analysis; Reperfusion 1 h) of 0.00 ± 0.00% and an EtHalogenated (End-tidal gas analysis; Reperfusion 2 h) of 0.00 ± 0.00%. The EtHalogenated (End-tidal gas analysis; Reperfusion 3 h) was 0.00 ± 0.00%.
In the case of FCOC(C(F)(F)F)C(F)(F)F [SEVO, sevoflurane], the “infarct size plotted as a function of area at risk, versus control regression line” value [1] is reported as “infarcts were smaller than in the control group”, the “cardioprotection” value [1] is reported as “provided protection against myocardial ischemia-reperfusion injury; also recorded: adequate protection against myocardial ischemia-reperfusion injury; also recorded: significant reduction in the myocardial infarct size” and the IF/AAR [1] is reported as 20.5 ± 2.3 %. The “IF WT” value [1] was 0.19 ± 0.04 g, the “Blood Concentration” value ([2]; Baseline) was 0 µM and the “Blood Concentration” value [2, 4] was 150 ± 10 µM. The “Blood Concentration” value [2, 5] was 20 ± 0 µM, the “Observed Blood Concentration following 30 min, 10 mL/h Infusion” value ([2]; i.v. emulsion) was 0.15 mM and the “Observed Blood Concentration following 30 min, 10 mL/h Infusion” value [2, 6] was 0.16 MAC-Equivalents. The “Partition Coefficient ("λ")” value [3] was 0.69, the EtCO2 (End-tidal gas analysis; Baseline) was 35 ± 1 mmHg and the EtCO2 (End-tidal gas analysis; Infusion) was 36 ± 1 mmHg. The EtCO2 (End-tidal gas analysis; Ischemia 30 min) was 35 ± 1 mmHg, the EtCO2 (End-tidal gas analysis; Memory) was 36 ± 1 mmHg and the EtCO2 (End-tidal gas analysis; Reperfusion 1 h) was 34 ± 1 mmHg. The EtCO2 (End-tidal gas analysis; Reperfusion 2 h) was 33 ± 1 mmHg, the EtCO2 (End-tidal gas analysis; Reperfusion 3 h) was 34 ± 1 mmHg and the EtHalogenated (End-tidal gas analysis; Baseline) was 0%. For the same molecule, the EtHalogenated (End-tidal gas analysis; Infusion) was 0.34 ± 0.02%, the EtHalogenated (End-tidal gas analysis; Ischemia 30 min) was 0.04 ± 0.01% and the EtHalogenated (End-tidal gas analysis; Memory) was 0.07 ± 0.01%. The EtHalogenated (End-tidal gas analysis; Reperfusion 1 h) was 0.03 ± 0.01%, the EtHalogenated (End-tidal gas analysis; Reperfusion 2 h) was 0.04 ± 0.01% and the EtHalogenated (End-tidal gas analysis; Reperfusion 3 h) was 0.05 ± 0.01%.
For FC(F)OC(F)C(F)(F)F (stereo not shown) [DES, desflurane], the “infarct size plotted as a function of area at risk, versus control regression line” value [1] was “infarct size comparable to controls”, the “cardioprotection” value [1] was “unable to confer cardioprotection; also recorded: did not confer cardioprotection” and the IF/AAR [1] was 38.5 ± 6.7%. For the same molecule, the “IF WT” value [1] was 0.50 ± 0.15 g, the “Blood Concentration” value ([2]; Baseline) was 0 µM and the “Blood Concentration” value [2, 4] was 180 ± 30 µM. For the same molecule, the “Blood Concentration” value [2, 5] was 30 ± 20 µM, the “Observed Blood Concentration following 30 min, 10 mL/h Infusion” value ([2]; i.v. emulsion) was 0.18 mM and the “Observed Blood Concentration following 30 min, 10 mL/h Infusion” value [2, 6] was 0.13 MAC-Equivalents. For the same molecule, the “Partition Coefficient ("λ")” value [3] was 0.42, the EtCO2 (End-tidal gas analysis; Baseline) was 31 ± 2 mmHg and the EtCO2 (End-tidal gas analysis; Infusion) was 30 ± 2 mmHg. It also gave an EtCO2 (End-tidal gas analysis; Ischemia 30 min) of 26 ± 3 mmHg, an EtCO2 (End-tidal gas analysis; Memory) of 28 ± 3 mmHg and an EtCO2 (End-tidal gas analysis; Reperfusion 1 h) of 29 ± 4 mmHg. For the same molecule, the EtCO2 (End-tidal gas analysis; Reperfusion 2 h) was 28 ± 3 mmHg, the EtCO2 (End-tidal gas analysis; Reperfusion 3 h) was 29 ± 3 mmHg and the EtHalogenated (End-tidal gas analysis; Baseline) was 0%. The EtHalogenated (End-tidal gas analysis; Infusion) was 0.37 ± 0.03 %, the EtHalogenated (End-tidal gas analysis; Ischemia 30 min) was 0.01 ± 0.00% and the EtHalogenated (End-tidal gas analysis; Memory) was 0.03 ± 0.01%. The EtHalogenated (End-tidal gas analysis; Reperfusion 1 h) was 0.00 ± 0.00%, the EtHalogenated (End-tidal gas analysis; Reperfusion 2 h) was 0.00 ± 0.00% and the EtHalogenated (End-tidal gas analysis; Reperfusion 3 h) was 0.00 ± 0.00%.
In the case of FC(F)OC(Cl)C(F)(F)F (stereo not shown) [ISO, isoflurane], the “infarct size plotted as a function of area at risk, versus control regression line” value [1] is reported as “infarcts were smaller than in the control group”, the “cardioprotection” value [1] is reported as “provided protection against myocardial ischemia-reperfusion injury; also recorded: adequate protection against myocardial ischemia-reperfusion injury; also recorded: significant reduction in the myocardial infarct size” and the IF/AAR [1] is reported as 18.1 ± 2.6 %. For the same molecule, the “IF WT” value [1] was 0.18 ± 0.03 g, the “Blood Concentration” value ([2]; Baseline) was 0 µM and the “Blood Concentration” value [2, 4] was 180 ± 60 µM. For the same molecule, the “Blood Concentration” value [2, 5] was 40 ± 20 µM, the “Observed Blood Concentration following 30 min, 10 mL/h Infusion” value ([2]; i.v. emulsion) was 0.18 mM and the “Observed Blood Concentration following 30 min, 10 mL/h Infusion” value [2, 6] was 0.17 MAC-Equivalents. The “Partition Coefficient ("λ")” value [3] was 1.4, the EtCO2 (End-tidal gas analysis; Baseline) was 34 ± 1 mmHg and the EtCO2 (End-tidal gas analysis; Infusion) was 34 ± 1 mmHg. It also gave an EtCO2 (End-tidal gas analysis; Ischemia 30 min) of 30 ± 2 mmHg, an EtCO2 (End-tidal gas analysis; Memory) of 33 ± 2 mmHg and an EtCO2 (End-tidal gas analysis; Reperfusion 1 h) of 27 ± 2 mmHg. For the same molecule, the EtCO2 (End-tidal gas analysis; Reperfusion 2 h) was 28 ± 2 mmHg, the EtCO2 (End-tidal gas analysis; Reperfusion 3 h) was 30 ± 2 mmHg and the EtHalogenated (End-tidal gas analysis; Baseline) was 0%. The EtHalogenated (End-tidal gas analysis; Infusion) was 0.31 ± 0.02%, the EtHalogenated (End-tidal gas analysis; Ischemia 30 min) was 0.00 ± 0.00% and the EtHalogenated (End-tidal gas analysis; Memory) was 0.02 ± 0.01%. It also gave an EtHalogenated (End-tidal gas analysis; Reperfusion 1 h) of 0.00 ± 0.00%, an EtHalogenated (End-tidal gas analysis; Reperfusion 2 h) of 0.00 ± 0.00% and an EtHalogenated (End-tidal gas analysis; Reperfusion 3 h) of 0.00 ± 0.00%.
